Test results as given in US5959130A, “Castor based benzoate esters” (Finetex, Inc., priority 1997, dated 1999).

Assays:
Format in all cases: physicochemical
[1] = refractive index of benzoate esters compared to precursors, Table V; settings: 25° C.
[2] = viscosity readings of Red No. 21 dispersions, Table VI B; settings: Brookfield LVT-D @ 12 RPM, Red No. 21 35%
[3] = Hagman readings (particle size), Red No. 6 Barium Lake dispersion, Table VI A; settings: Red No. 6 Barium Lake 35%
Experimental: (§1) The novel benzoate esters of the invention were tested for pigment and dye dispersing efficacy. Color pastes were prepared by dispersing dry pigment into the oil phase while hand stirring and then passing each mixture through a three roll mill six times, collecting a 16 oz. sample after each pass. The samples collected were subjected to particle size measurements.

[4] = sunscreen solubility: Benzophenone-3, Table IV A
Source text: (§2) These two sunscreens are difficult to dissolve and keep in solution for use in sunscreen formulations for optimal SPF (sun-protection factors). Higher solvency for a sunscreen ingredient is desirable as it allows higher concentrations of the sunscreen active ingredient in a formulation. This advantageously raises the SPF ratings for the formulation. The liquid organic sunscreens that are commonly used are octyl-methoxy cinnamate (OMC) and octyl salicylate (OS).
(§3) Solubility/Solvency Tables IVA and IVB show the solubility and concentrations of the sunscreen ingredient in the novel esters of the invention compared to their precursor raw materials (non-benzoate esters).

[5] = Hagman readings (particle size), Red No. 21 dispersion, Table VI A; settings: Red No. 21 35%
Experimental: as §1

[6] = Hagman readings (particle size), titanium dioxide dispersion, Table VI A; settings: TiO2 50%
Experimental: as §1

[7] = physical properties of benzoate esters compared to precursors, Table II
Source text: Absence of odor is an important factor in consumer acceptance of cosmetic and toiletry products.

[8] = viscosity readings of titanium dioxide dispersions, Table VI B; settings: Brookfield LVT-D @ 12 RPM, TiO2 50%
[9] = sunscreen solubility: PARSOL 1789, Table IV B
Source text: as §2, §3

[10] = 23° C., 10 gms sunscreen in 100 gms mixture
[11] = 30° C., 10 gms sunscreen in 100 gms mixture
[12] = 30° C., 15 gms sunscreen in 100 gms mixture

## CCCCCCCCCCCCCCCCOC(=O)CCCCCCC/C=C\C[C@H](O)CCCCCC [CR, Cetyl Ricinoleate, reference compound]
[1]
  Refractive Index, Typical: 1.4580
[2]; pass 1
  Viscosity reading of dispersion: Out of instrument range
[2]; pass 2
  Viscosity reading of dispersion: Out of instrument range
[2]; pass 3
  Viscosity reading of dispersion: Out of instrument range
[2]; pass 4
  Viscosity reading of dispersion: Out of instrument range
[2]; pass 5
  Viscosity reading of dispersion: Out of instrument range
[2]; pass 6
  Viscosity reading of dispersion: Out of instrument range
[3]; pass 1
  Hagman reading (particle size): ≤ 49 μm
[3]; pass 2
  Hagman reading (particle size): ≤ 48 μm
[3]; pass 3
  Hagman reading (particle size): ≤ 40 μm
[3]; pass 4
  Hagman reading (particle size): ≤ 38 μm
[3]; pass 5
  Hagman reading (particle size): ≤ 33 μm
[3]; pass 6
  Hagman reading (particle size): ≤ 30 μm
[4]; [10]
  Sunscreen solubility (Benzophenone-3): +
[4]; [11]
  Sunscreen solubility (Benzophenone-3): +
[4]; [12]
  Sunscreen solubility (Benzophenone-3): +
[5]; pass 1
  Hagman reading (particle size): ≤ 39 μm
[5]; pass 2
  Hagman reading (particle size): ≤ 36 μm
[5]; pass 3
  Hagman reading (particle size): ≤ 30 μm
[5]; pass 4
  Hagman reading (particle size): ≤ 26 μm
[5]; pass 5
  Hagman reading (particle size): ≤ 18 μm
[5]; pass 6
  Hagman reading (particle size): ≤ 14 μm
[6]; pass 1
  Hagman reading (particle size): ≤ 93 μm
[6]; pass 2
  Hagman reading (particle size): ≤ 80 μm
[6]; pass 3
  Hagman reading (particle size): ≤ 80 μm
[6]; pass 4
  Hagman reading (particle size): ≤ 76 μm
[6]; pass 5
  Hagman reading (particle size): ≤ 50 μm
[6]; pass 6
  Hagman reading (particle size): ≤ 43 μm
[7]
  Color: light yellow
[7]; 25° C.
  S.G. (specific gravity): 0.874
[7]; Brookfield Viscometer, Spindle # 1, 10 rpm
  VISCOSITY: 65 cps
[7]; Table II
  REFRACTIVE INDEX: 1.4580
[8]; pass 1
  Viscosity reading of dispersion: Out of instrument range
[8]; pass 2
  Viscosity reading of dispersion: Out of instrument range
[8]; pass 3
  Viscosity reading of dispersion: Out of instrument range
[8]; pass 4
  Viscosity reading of dispersion: Out of instrument range
[8]; pass 5
  Viscosity reading of dispersion: Out of instrument range
[8]; pass 6
  Viscosity reading of dispersion: Out of instrument range
[9]; [10]
  Sunscreen solubility (Parsol 1789): +
[9]; [11]
  Sunscreen solubility (Parsol 1789): +
[9]; [12]
  Sunscreen solubility (Parsol 1789): +
